The values that follow come from US20130189764A1, “SELECTIVE GROWTH MEDIA” (Oxide Limited, priority 2000, published 2013).

Values after ≈ are worked out from the molar mass of the structure shown. A value given as a limit tells only on which side of the number the result lay.

The subject of assay [1] is Salmonella typhimurium and Salmonella worthington. The assay can be described thus: Bioscreen growth in Lab-Lemco broth (Example 9A), Salmonella strains. In kind it is cell-based. As to conditions: 128 μg/ml, Lab-Lemco broth pH 6.0, 37° C. Here is the method: (§1) […] […] Plates were then covered, incubated at 37° C., and the opacity of the organism suspensions measured using a Bioscreen instrument (a semi-automated microbiological growth analyser, available from Thermolabsystems, Ashford, Middlesex, U.K.).
(§2) The results are shown in FIG. 13, which is a graph of optical density against time (in hours). The optical density readings were taken in “wide band” (wb) mode, i.e. using white light without any filter.

Assay [2] concerns Citrobacter freundii OCC 370. The assay can be described thus: mixed culture viable count in Nutrient Broth No. 2 (Example 9B). As to conditions: 128 μg/ml, Nutrient Broth No. 2, mixed culture with Salmonella, 37° C. Type of assay: cell-based. As for the experimental part: (§3) L-Pyroglutamyl-L-aminoethylphosphonate was added to Oxoid Nutrient Broth No. 2 (final concentration=128 μg/ml) contained in a universal tube in a water bath at 37° C. Citrobacter freundii OCC 370 and Salmonella typhimurium OCC 626 were grown overnight in Nutrient Broth No. 2 at 37° C., diluted 1 in 1000 in Maximal Recovery Diluent and amounts added to the Nutrient Broth to give final concentrations of about 10^4 cfu/ml of each organism. At intervals samples were taken and spread on XLD and the number of red colonies with black centres enumerated as Salmonella and yellow ones as Citrobacter.
(§4) The results are shown in FIG. 14, which is a graph of Log10 viable count (cfu/ml) against time (in hours). The plots for C. freundii are shown by lozenge symbols, whist those for S. typhimurium are shown by squares. Filled symbols and solid lines show results in the presence of Pyr-AEP, empty symbols and dotted lines show results in the absence of Pyr-AEP.

For assay [3], the system named is Salmonella typhimurium OCC 626. The assay is described as above. Conditions: 128 μg/ml, Nutrient Broth No. 2, mixed culture with Citrobacter, 37° C. In kind it is cell-based. As for the experimental part:
as §3, §4

The test system of assay [4] is Salmonella virchow OCC703. The assay can be described thus: MIC from Bioscreen growth curves in various media (Example 13). In kind it is cell-based. As for the experimental part:
(§5) In general, media containing a higher concentration of short chain peptides, for example hydrolysed casein, reduced the effectiveness of the inhibitor. Thus, Pyr-AEP was dissolved in deionised water (51.2 mg/ml), filter sterilised, and amounts of the solution added to autoclaved Bacteriological Peptone, Casein Hydrolysate, Lab-Lemco broth and Proteose Peptone (20 g/l; pH 7.3) to give a dilution series of 1,477, 739, 369, 185 μg/ml. Volumes ([…]) of these solutions were then pipetted into the wells of Bioscreen microtitre plates and 30 μl quantities of 1 in 10,000 dilutions of overnight cultures of Citrobacter freundii OCC 261, Enterobacter aerogenes OCC 720, Salmonella enteritidis OCC 723 and Salmonella virchow OCC 703 added. Plates were then covered, incubated at 37° C., and the opacity of the organism suspensions, measured using a Bioscreen instrument.

The test system of assay [5] is Citrobacter freundii OCC261. The description is as above. Type of assay: cell-based. As for the experimental part: as §5
Assay [6] relates to Enterobacter aerogenes OCC720. The description is as above. In kind it is cell-based. As for the experimental part: as §5
Assay [7] relates to Salmonella enteritidis OCC723. Described as above. Type of assay: cell-based. As for the experimental part: as §5
In assay [8] the test system is Citrobacter freundii, Enterobacter aerogenes, Enterobacter cloacae. Kind of assay: Bioscreen growth in Lab-Lemco broth (Example 9A), other strains. In kind it is cell-based. As to conditions: 128 μg/ml, Lab-Lemco broth pH 6.0, 37° C., other strains tested. As for the experimental part: as §1, §2
Assay [9] deals with E. faecalis 640 and S. aureus 106. The assay can be described thus: selective recovery of S. aureus on DMSal agar seeded with E. faecalis (Example 18). In kind it is cell-based, Enterococcus faecalis, Staphylococcus aureus. As to conditions: 20 μg/ml, DMSal agar with horse serum (50 ml/L), approximately 24 hours at 37° C. Here is the method: The effectiveness of sulfacetamide-β-D-galactoside as a selective agent for recovery of S. aureus in the presence of E. faecalis was tested. Sulfacetamide-β-D-galactoside (20 μg/ml) and horse serum (50 ml/L) was added to DMSal agar to make the test plates; DMSal agar without sulfacetamide-β-D-galactoside served as the control. All plates (with and without sulfacetamide-β-D-galactoside) were seeded with E. faecalis 640 and half of the total number of plates (with and without sulfacetamide-β-D-galactoside) were streaked with S. aureus 106. All plates were incubated for approximately 24 hours at 37° C.
As FIGS. 22a and 22b show, all plates without sulfacetamide-β-D-galactoside supported growth of E. faecalis.

With `C[C@H](NC(=O)[C@@H]1CCC(=O)N1)P(=O)(O)O` [Pyr-AEP, L-pyroglutamyl-L-1-aminoethylphosphonic acid], the “growth (optical density) in presence of the agent” value in assay [1] is listed as “not inhibited”; in [8] it was “inhibited”. Also, the entries for the “effect on growth (Log10 viable count)” value in [2] and in assay [3] were “completely inhibitory” and “no significant effect”, respectively. Moreover, the Minimum inhibitory concentration is 671 µg/mL (≈ 2.84 mM) in assay [4] (Salmonella virchow OCC703, Bacteriological Peptone); above 1343 µg/mL in assay [4] (Salmonella virchow OCC703, Casein Hydrolysate); 1343 µg/mL (≈ 5.69 mM) in assay [4] (Salmonella virchow OCC703, Lab-Lemco); 1343 µg/mL (≈ 5.69 mM) in assay [4] (Salmonella virchow OCC703, Proteose Peptone); 168 µg/mL (≈ 0.711 mM) in assay [5] (Citrobacter freundii OCC261, Bacteriological Peptone); above 1343 µg/mL in [5] (Citrobacter freundii OCC261, Casein Hydrolysate). For the same compound, the Minimum inhibitory concentration in assay [5] (Citrobacter freundii OCC261, Lab-Lemco) is 168 µg/mL (≈ 0.711 mM); in [5] (Citrobacter freundii OCC261, Proteose Peptone), 1343 µg/mL (≈ 5.69 mM); in assay [6] (Enterobacter aerogenes OCC720, Bacteriological Peptone), 671 µg/mL (≈ 2.84 mM); in assay [6] (Enterobacter aerogenes OCC720, Casein Hydrolysate) it was above 1343 µg/mL; in assay [6] (Enterobacter aerogenes OCC720, Lab-Lemco) it was 336 µg/mL (≈ 1.42 mM); in assay [6] (Enterobacter aerogenes OCC720, Proteose Peptone) it was above 1343 µg/mL. Besides, the Minimum inhibitory concentration was 671 µg/mL (≈ 2.84 mM) in [7] (Salmonella enteritidis OCC723, Bacteriological Peptone); above 1343 µg/mL in [7] (Salmonella enteritidis OCC723, Casein Hydrolysate); 1343 µg/mL (≈ 5.69 mM) in assay [7] (Salmonella enteritidis OCC723, Lab-Lemco); 1343 µg/mL (≈ 5.69 mM) in assay [7] (Salmonella enteritidis OCC723, Proteose Peptone).
As for `CC(=O)NS(=O)(=O)c1ccc(N[C@@H]2O[C@H](CO)[C@H](O)[C@H](O)[C@H]2O)cc1` [sulfacetamide-β-D-galactoside], the “colonies observed on plates seeded with E. faecalis and streaked with S. aureus” value in assay [9] is recorded as “only colonies of S. aureus were observed”.
